Data as given in US7678390B2, “Carbon monoxide as a biomarker and therapeutic agent” (priority 1999, dated 2010).
Marks after values point to notes of the source that are not given here.

Columns and labels:
[1] = test system: rat pulmonary vascular smooth muscle cells; experiment: cGMP radioimmunoassay in vascular smooth muscle cells; type: cell-based; settings: 2 h
Description: (§1) Animals. Male C57BL/6 and IL-10 (−/−) mice were purchased from Jackson Laboratory (Bar Harbor, Me.), and allowed to acclimate for one week with rodent chow and water ad libitum. The MKK (−/−) mice were generated as previously described [Lu, et al., EMBO J. 18:1845-1857 (1999)]. Wild type littermates were used as controls. All animals were housed in accordance with guidelines from the American Association for Laboratory Animal Care and Research Protocols and were approved by the Animal Care and Use Committee of Yale University School of Medicine. Reagents. All reagents were purchased from Sigma Chemical Co. (St Louis, Mo.) unless specified otherwise. Plasmid Construct. Plasmid pSFFV/HO-1 was constructed by insertion of the rat HO-1 cDNA [Shibahara, et al., Proc. Natl. Acad. Sci. USA. 82: 7865-7869 (1985)] downstream of the Friend spleen focus-forming virus 5′ long-terminal repeat in the mammalian expression vector pSFFV/neo [Fuhlbrigge, et al, Proc. Natl. Acad. Sci. USA. 85: 5649-5653 (1988)] (kindly provided by Stanley Korsmeyer). Transfection. […] Gas samples were taken by the analyzer through a port in the top of the chambers at a rate of 1 L/min and analyzed by electrochemical detection, with a sensitivity of 10-600 ppm. Concentration levels were measured hourly and there were no fluctuations in the CO concentrations once the chamber had equilibrated (approximately 5 min). […]

[2] = test system: IL-10(−/−) null mice given LPS; experiment: LPS-induced serum TNF-α in IL-10(-/-) null mice; type: in vivo; settings: Mus musculus, IL-10(−/−) mice, CO 250 ppm, 1 h, read-out: inhibition of serum TNF-α levels
Description: as §1

ERK1/ERK2 = experiment: LPS-induced MAP kinase activation, Western blot (ERK1/ERK2); type: cell-based, mouse; settings: RAW 264.7 macrophages, LPS in the presence of CO
Description: as §1

JNK = experiment: LPS-induced MAP kinase activation, Western blot (JNK); type: cell-based, mouse; settings: RAW 264.7 macrophages, LPS in the presence of CO
Description: as §1

## [C-]#[O+] [CO, carbon monoxide]
[1]; VSM (vascular smooth muscle cells), CO 250 ppm
  cGMP: 8.1 ± 2^c pmol/mg protein
[1]; smooth muscle cells, 250 ppm CO
  increase in cGMP content: 16 fold
[2]
  inhibition at 250 ppm: 66%
ERK1/ERK2
  LPS-induced ERK1/ERK2 MAP kinase activation: not affected
JNK
  LPS-induced JNK MAP kinase activation: not affected
